Patent publication US20240368133A1, “Compounds for the Treatment of Pain, in Particular, Neuropathic Pain, and/or Other Diseases or Disorders that are Associated with AT2R and/or AT2R Mediated Signaling” (Confo Therapeutics N.V., priority 2021, published 2024)

Legend:
human AT1R = human AT1R (Homo sapiens (Human), UniProt P30556); assay: Counterscreen radioligand binding assay, displacement of 125I-[Sar1, Ile8]-Angiotensin II, hAT1R WT; details: for inhibition at 1 µM / inhibition at 10 µM: 125I-[Sar1, Ile8]-Ang II, semi-quantitative score; for inhibition at 1 µM: compound at 1 μM, read-out: % Displaced radioligand at 1 μM; for inhibition at 10 µM: compound at 10 μM, read-out: % Displaced radioligand at 10 μM; for IC50: HEK-293 cell membranes, read-out: Binding affinity On hAT1R IC50
Procedure: (§1) All synthesized ligands were evaluated in a radioligand assay by displacing ^125I-[Sar1, Ile8]-Angiotensin II (Perkin Elmer, NEX248050UC) from human AT2R fused to Cb23 or human/rodent/cynomolgus/minipig/dog WT AT2R in HEK-293 cells membrane preparations, using C21 (Vicore Pharma) and Angiotensin II (endogenous ligand) as reference. The affinity was determined using an eight-point dose-response curve, each point performed in duplicates. The compounds were also evaluated in a counterscreen binding assay for displacement of ^125I-[Sar1, Ile8]-Angiotensin II binding to human AT1R in HEK-293 cell membranes. For AT1R, the percent displacement was determined at 1 μM and […] (in duplicates) or using an eight-point dose-response curve, each point performed in duplicates with Candesartan and Losartan used as reference.
(§2) For the AT2R/AT1R binding assays, cell membranes, expressing AT2R_Cb23, AT2R or AT1R, were incubated with 0.05 nM ^125I-[Sarl, Ile8]-Ang II. The ligand competition assay was performed in a total volume of 100 μL assay buffer (50 mM Tris, 5 mM MgCl2, 1 mM EDTA, 0.1% BSA, pH 7.4), at concentrations ranging from […] to 10 μM. For each experiment, each ligand concentration was tested in duplicate. Non-specific binding (NSB) was determined by the inclusion of 10 μM unlabeled [Sarl]-Ang II (Sigma Aldrich). The reaction was initiated by the addition of radioligand, after which the plates were incubated at 25° C. for one hour. The reaction was terminated by rapid filtration using a vacuum harvester, applying six washes with 100 μL of ice-cold wash buffer (50 mM Tris.HCl, pH 7.4). The filter plates GF/C (Perkin Elmer) were pre-soaked in 0.5% PEI. The residual amount of radioactivity was determined via liquid scintillation counting. IC50 values, representing the concentration at which each ligand displaced 50% of ^125I-[Sarl, Ile8]-Ang II, were calculated using GraphPad Prism 7.02 by applying a Non-linear regression equation (variable slope, four parameters) on the data. The obtained values serve as affinity estimates for each ligand and their ability to compete against the radioligand for binding with AT2R or AT1R, respectively.

human AT2R fused to Cb23 = human AT2R fused to Cb23 (Homo sapiens, UniProt P50052); assay: Radioligand binding assay, displacement of 125I-[Sar1, Ile8]-Angiotensin II, hAT2R Cb23; details: displacement of 125I-[Sar1, Ile8]-Angiotensin II, human AT2R fused to Cb23, HEK-293 cell membrane preparations; read-out: Binding affinity on hAT2R_Cb23 IC50
Procedure: as §1, §2

Chain of human AT2R fused to Cb23 (P50052 whole entry, looked up, the tested form may be a part): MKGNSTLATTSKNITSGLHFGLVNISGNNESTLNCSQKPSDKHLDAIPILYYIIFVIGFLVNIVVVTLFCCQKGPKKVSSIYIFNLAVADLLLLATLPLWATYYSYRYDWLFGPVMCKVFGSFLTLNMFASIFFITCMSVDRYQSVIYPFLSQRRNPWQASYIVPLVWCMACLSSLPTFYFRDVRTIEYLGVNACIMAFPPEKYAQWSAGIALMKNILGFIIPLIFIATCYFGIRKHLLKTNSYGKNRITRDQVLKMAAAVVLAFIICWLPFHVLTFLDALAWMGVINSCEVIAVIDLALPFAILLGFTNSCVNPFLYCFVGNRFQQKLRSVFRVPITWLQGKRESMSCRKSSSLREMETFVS
Chain of human AT1R (P30556 whole entry, the tested form may be a part): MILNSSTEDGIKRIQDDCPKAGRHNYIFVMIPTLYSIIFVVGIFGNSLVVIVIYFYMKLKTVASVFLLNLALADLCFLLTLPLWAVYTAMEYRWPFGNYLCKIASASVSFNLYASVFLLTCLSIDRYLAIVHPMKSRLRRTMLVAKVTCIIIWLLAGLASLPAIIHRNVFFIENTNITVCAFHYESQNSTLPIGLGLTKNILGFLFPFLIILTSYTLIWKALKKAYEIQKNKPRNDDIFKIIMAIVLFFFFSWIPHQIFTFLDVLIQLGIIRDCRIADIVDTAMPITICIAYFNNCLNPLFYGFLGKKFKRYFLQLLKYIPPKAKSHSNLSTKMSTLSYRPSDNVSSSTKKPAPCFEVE

Row | Structure (SMILES) | inhibition at 1 µM (human AT1R) | inhibition at 10 µM (human AT1R) | IC50 (human AT2R fused to Cb23) | IC50 (human AT1R)
1 | CC(C)Cc1ccc(-c2nn[nH]n2)c(N2CCN(Cc3nccs3)CC2)c1 [Compound A-97, 2-[[4-[5-isobutyl-2-(2H-tetrazol-5-yl)phenyl]piperazin-1-yl]methyl]thiazole] | < 30% | < 30% | 0.757 µM | –
2 | c1ccc2sc(CN3CCN(c4cc(C5CC5)ccc4-c4nn[nH]n4)CC3)nc2c1 [Compound A-47, 2-[[4-[5-cycloprop-yl-2-(2H-tetrazol-5-yl)phenyl]piperazin-1-yl]methyl]-1,3-benzothiazole] | < 30% | < 30% | 1.07 µM | –
3 | CCc1ccc(-c2nn[nH]n2)c(N2CCN(Cc3nc4ccccc4s3)CC2)c1 [Compound A-45, 2-[[4-[5-ethyl-2-(2H-tetrazol-5-yl)-phenyl]piperazin-1-yl]methyl]-1,3-benzothiazole] | < 30% | < 30% | 2.54 µM | 30 µM
4 | Cc1ccn2c(=O)cc(CN3CCN(c4cc(CC(C)C)ccc4-c4nn[nH]n4)CC3)nc2c1 [Compound A-72, 2-[[4-[5-isobutyl-2-(2H-tetrazol-5-yl)phenyl]piperazin-1-yl]methyl]-8-methyl-pyrido[1,2-a]pyrimidin-4-one] | < 30% | < 30% | 8.39 µM | –
5 | c1ccc2sc(CN3CCN(c4cc(N5CCCCC5)ccc4-c4nn[nH]n4)CC3)nc2c1 [Compound A-65, 2-((4-(5-(piperidin-1-yl)-2-(2H-tetrazol-5-yl)phenyl)piperazin-1-yl)methyl) benzo[d]thiazole] | < 30% | < 30% | 1.85 µM | 60.8 µM
6 | CC(C)Oc1ccc(-c2nn[nH]n2)c(N2CCC(Cc3nc4ccccc4n3C)CC2)c1 [Compound A-25, 2-[[1-[5-isopropoxy-2-(2H-tetrazol-5-yl)phenyl]-4-piperidyl]methyl]-1-methyl-benzimid-azole] | < 30% | < 30% | 8.31 µM | –
7 | Cc1ccc(-c2nn[nH]n2)c(N2CCN(Cc3nc4ccccc4n3C)CC2)c1 [Compound A-16, 1-methyl-2-[[4-[5-methyl-2-(2H-tetrazol-5-yl)phen-yl]piperazin-1-yl]-methyl]benzimid-azole] | – | – | 21.7 µM | –
8 | Cc1ccc(-c2nn[nH]n2)c(N2CCN(Cc3nc4ccccc4c(=O)[nH]3)CC2)c1 [Compound A-27, 2-[[4-[5-methyl-2-(2H-tetrazol-5-yl)-phenyl]piperazin-1-yl]methyl]-3H-quinazolin-4-one] | – | – | 35.9 µM | –
9 | CC(C)Cc1ccc(-c2nn[nH]n2)c(N2CCN(Cc3cccc(C#N)n3)CC2)c1 [Compound A-107, 6-[[4-[5-isobutyl-2-(2H-tetrazol-5-yl)-phenyl]piperazin-1-yl]methyl]pyr-idine-2-carbonitrile] | – | – | 54.9 µM | –
10 | CC(C)Cc1ccc(-c2nn[nH]n2)c(N2CCN(Cc3cc(=O)n4c(ccn4C)n3)CC2)c1 [Compound A-74, 5-[[4-[5-isobutyl-2-(2H-tetrazol-5-yl)-phenyl]piperazin-1-yl]methyl]-1-methyl-pyrazolo-[1,5-a]pyrimidin-7-one] | – | – | 11.7 µM | –
11 | c1cnnc(CN2CCN(c3cc(C4CC4)ccc3-c3nn[nH]n3)CC2)c1 [Compound A-91, 3-[[4-[5-cyclopropyl-2-(2H-tetrazol-5-yl)phenyl]piperazin-1-yl]methyl]pyridazine] | – | – | 23.7 µM | –
12 | Fc1cc(-c2nn[nH]n2)c(N2CCN(Cc3nc4ccccc4s3)CC2)cc1C1CC1 [Compound A-124, 2-[[4-[5-cycloprop-yl-4-fluoro-2-(2H-tetrazol-5-yl)phen-yl]piperazin-1-yl]-methyl]-1,3-benzo-thiazole] | – | – | 18.1 µM | –
13 | Cc1nnc(CN2CCN(c3cc(CC(C)C)ccc3-c3nn[nH]n3)CC2)o1 [Compound A-92] | – | – | 15.6 µM | –
14 | COc1cc(N2CCN(Cc3nc4ccccc4s3)CC2)c(-c2nn[nH]n2)cc1F [Compound A-117, 2-[[4-[4-fluoro-5-methoxy-2-(2H-tetrazol-5-yl)phen-yl]piperazin-1-yl]-methyl]-1,3-benzo-thiazole] | – | – | 52.6 µM | –
15 | Cc1nc(=O)cc(CN2CCN(c3cc(CC(C)C)ccc3-c3nn[nH]n3)CC2)[nH]1 [Compound A-95, 6-[[4-[5-isobutyl-2-(2H-tetrazol-5-yl)phenyl]piperazin-1-yl]methyl]-2-methyl-1H-pyrimidin-4-one] | – | – | 43.3 µM | –
16 | CC(C)Cc1ccc(-c2nn[nH]n2)c(N2CCN(Cc3ccn(C)n3)CC2)c1 [Compound A-110, 1-[5-isobutyl-2-(2H-tetrazol-5-yl)phen-yl]-4-[(1-methyl-pyrazol-3-yl)meth-yl]piperazine] | – | – | 17.8 µM | –
17 | COCCOc1ccc(-c2nn[nH]n2)c(N2CCN(Cc3nc4ccccc4s3)CC2)c1 [Compound A-56, 2-[[4-[5-(2-meth-oxyethoxy)-2-(2H-tetrazol-5-yl)phen-yl]piperazin-1-yl]-methyl]-1,3-benzo-thiazole] | – | – | 61.7 µM | –

More lines, now with the values ahead:

Row | inhibition at 1 µM (human AT1R) | inhibition at 10 µM (human AT1R) | IC50 (human AT2R fused to Cb23) | IC50 (human AT1R) | Structure (SMILES)
18 | < 30% | < 30% | 0.0922 µM | – | Cc1cnc(CN2C(C)CN(c3cc(CC(C)C)cc(F)c3-c3nn[nH]n3)CC2C)s1 (stereo not shown) [Compound A-224, 2-[[4-[3-fluoro-5-isobutyl-2-(2H-tetrazol-5-yl)phen-yl]-2,6-dimethyl-piperazin-1-yl]-methyl]-5-methyl-thiazole]
19 | < 30% | < 30% | 0.737 µM | – | COc1ccc(CN2CCN(c3cc(CC(C)C)cc(F)c3-c3nn[nH]n3)CC2)nc1 [Compound A-194, 1-[3-fluoro-5-isobutyl-2-(2H-tetrazol-5-yl)phenyl]-4-[(5-methoxy-2-pyridyl)methyl]piperazine]
20 | < 30% | < 30% | 0.631 µM | – | CC(C)Cc1cc(F)c(-c2nn[nH]n2)c(N2CCN(Cc3ncccc3F)CC2)c1 [Compound A-196, 1-[3-fluoro-5-isobutyl-2-(2H-tetrazol-5-yl)phen-yl]-4-[(3-fluoro-2-pyridyl)methyl]-piperazine]
21 | < 30% | < 30% | 0.0121 µM | – | CCc1cc(CC(C)C)cc(N2CCN(Cc3nc4ccccc4s3)CC2)c1-c1nn[nH]n1 [Compound A-136, 2-[[4-[3-ethyl-5-isobutyl-2-(2H-tetrazol-5-yl)phen-yl]piperazin-1-yl]-methyl]-1,3-benzo-thiazole]
22 | < 30% | < 30% | 1.01 µM | – | CC(C)Cc1ccc(-c2nn[nH]n2)c(N2CC(NCc3cccnn3)C2)c1 [Compound A-236, 1-(5-isobutyl-2-(2H-tetrazol-5-yl)-phenyl)-N-(pyrid-azin-3-ylmethyl)-azetidin-3-amine]
23 | – | – | 22.6 µM | – | Cc1cc(-c2nn[nH]n2)c(N2CCN(Cc3nc4ccccc4s3)CC2)cc1C1CC1 [Compound A-126, 2-[[4-[5-cycloprop-yl-4-methyl-2-(2H-tetrazol-5-yl)phen-yl]piperazin-1-yl]-methyl]-1,3-benzo-thiazole]
24 | – | – | 22.1 µM | – | Cc1cc(-c2nn[nH]n2)c(N2CCN(Cc3cccnn3)CC2)cc1CC(C)C [Compound A-166, 3-[[4-[5-isobutyl-4-methyl-2-(2H-tetrazol-5-yl)phen-yl]piperazin-1-yl]-methyl]pyridazine]
25 | – | – | 28.8 µM | – | CCNc1cc(-c2nn[nH]n2)c(N2CCN(Cc3nc4ccccc4s3)CC2)cc1C1CC1 [Compound A-130, 4-[4-(1,3-benzothi-azol-2-ylmethyl)-piperazin-1-yl]-2-cyclopropyl-N-eth-yl-5-(2H-tetrazol-5-yl)aniline]
26 | – | – | 72.8 µM | – | COc1cc(F)c(-c2nn[nH]n2)c(N2CCN(Cc3cccnn3)CC2)c1 [Compound A-155, 3-[[4-[3-fluoro-5-methoxy-2-(2H-tetrazol-5-yl)phen-yl]piperazin-1-yl]-methyl]pyridazine]
27 | – | – | 33.8 µM | – | COc1cc(F)c(-c2nn[nH]n2)c(N2CCN(Cc3nc4ccccc4c(=O)[nH]3)CC2)c1 [Compound A-150, 2-[[4-[3-fluoro-5-methoxy-2-(2H-tetrazol-5-yl)phen-yl]piperazin-1-yl]-methyl]-3H-quin-azolin-4-one]
28 | – | – | 14.8 µM | – | c1ccc2sc(CN3CCN(c4cc(C5CC5)ncc4-c4nn[nH]n4)CC3)nc2c1 [Compound A-144, 2-[[4-[2-cycloprop-yl-5-(2H-tetrazol-5-yl)-4-pyridyl]piper-azin-1-yl]methyl]-1,3-benzothiazole]
